# In PubChem BioAssay (NCI):
#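 Tested at 5 concentrations; 48 h exposure; 96-well plates; endpoints linearly interpolated, else capped at highest concentration. TGI: concentration producing complete growth inhibition.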
# What was measured:
# Assay in all cases: inhibition of tumour cell growth, NCI panel, 48 h
# [1] = tested on: K-562 leukemia
# [2] = tested on: BT-549 breast
# [3] = tested on: SNB-19 CNS
# [4] = tested on: MOLT-4 leukemia
# [5] = tested on: IGROV1 ovarian
# [6] = tested on: OVCAR-3 ovarian
# [7] = tested on: SK-MEL-5 melanoma
# [8] = tested on: NCI/ADR-RES ovarian
# [9] = tested on: HT29 colon
# [10] = tested on: SR leukemia
# [11] = tested on: TK-10 renal
# [12] = tested on: NCI-H460 lung
# [13] = tested on: A549 NSCLC
# [14] = tested on: HL-60(TB) leukemia
# [15] = tested on: SK-MEL-2 melanoma
# [16] = tested on: HCT-116 colon
# [17] = tested on: ACHN renal
# [18] = tested on: NCI-H226 lung
# [19] = tested on: UO-31 renal
# [20] = tested on: OVCAR-8 ovarian
# [21] = tested on: 786-0 renal
# [22] = tested on: MDA-MB-435
# [23] = tested on: SK-MEL-28 melanoma
# [24] = tested on: PC-3 prostate
# [25] = tested on: KM12 colon
# [26] = tested on: OVCAR-4 ovarian
# [27] = tested on: COLO 205 colon
# [28] = tested on: MCF7 breast
# [29] = tested on: EKVX NSCLC
# [30] = tested on: SF-295 CNS
# [31] = tested on: UACC-257 melanoma
# [32] = tested on: HCC-2998 colon
# [33] = tested on: SN12C renal
# [34] = tested on: CAKI-1 renal
# [35] = tested on: SK-OV-3 ovarian
# [36] = tested on: SF-268 CNS
# [37] = tested on: MALME-3M melanoma
# [38] = tested on: MDA-N
# [39] = tested on: HOP-62 NSCLC
# [40] = tested on: RXF 393 renal
# [41] = tested on: SW-620 colon
# [42] = tested on: M14 melanoma
# [43] = tested on: HS 578T breast
# [44] = tested on: U251 CNS
# [45] = tested on: T-47D breast
# [46] = tested on: LOX IMVI melanoma
# [47] = tested on: NCI-H522 lung
# [48] = tested on: HOP-92 NSCLC
# [49] = tested on: RPMI-8226 leukemia
# [50] = tested on: OVCAR-5 ovarian
# [51] = tested on: A498 renal
# [52] = tested on: NCI-H23 lung
# [53] = tested on: HCT-15 colon
# [54] = tested on: MDA-MB-231 breast
# [55] = tested on: DU-145 prostate
# [56] = tested on: CCRF-CEM leukemia
# [57] = tested on: SF-539 CNS
smiles,measurement,setting,value
O=C(/C=C1\Sc2ccccc2N=C1CC(=O)c1ccccc1)c1ccccc1,TGI,[1],20 µM
same,TGI,[2],37.9 µM
same,TGI,[3],> 100 µM
same,TGI,[4],24.7 µM
same,TGI,[5],37.4 µM
same,TGI,[6],29.5 µM
same,TGI,[7],19 µM
same,TGI,[8],18.7 µM
same,TGI,[9],23.6 µM
same,TGI,[10],16 µM
same,TGI,[11],45.2 µM
same,TGI,[12],27.5 µM
same,TGI,[13],25.1 µM
same,TGI,[14],22.3 µM
same,TGI,[15],87.2 µM
same,TGI,[16],19.2 µM
same,TGI,[17],72.5 µM
same,TGI,[18],35.5 µM
same,TGI,[19],31.5 µM
same,TGI,[20],37 µM
same,TGI,[21],21.7 µM
same,TGI,[22],29.6 µM
same,TGI,[23],57.2 µM
same,TGI,[24],> 100 µM
same,TGI,[25],24.5 µM
same,TGI,[26],40.3 µM
same,TGI,[27],22.3 µM
same,TGI,[28],> 100 µM
same,TGI,[29],37.4 µM
same,TGI,[30],24.7 µM
same,TGI,[31],> 100 µM
same,TGI,[32],26.2 µM
same,TGI,[33],39.4 µM
same,TGI,[34],34.1 µM
same,TGI,[35],72 µM
same,TGI,[36],45.8 µM
same,TGI,[37],23 µM
same,TGI,[38],> 100 µM
same,TGI,[39],19.8 µM
same,TGI,[40],> 100 µM
same,TGI,[41],22.5 µM
same,TGI,[42],36.4 µM
same,TGI,[43],> 100 µM
same,TGI,[44],18.2 µM
same,TGI,[45],75.5 µM
same,TGI,[46],21.2 µM
same,TGI,[47],55.4 µM
same,TGI,[48],21.6 µM
same,TGI,[49],26.3 µM
same,TGI,[50],61.4 µM
same,TGI,[51],> 100 µM
same,TGI,[52],> 100 µM
same,TGI,[53],> 100 µM
same,TGI,[54],41.8 µM
same,TGI,[55],89.1 µM
same,TGI,[56],50 µM
same,TGI,[57],34.7 µM
